The experiment addresses T1, WT mPIEZO1 (Mus musculus, UniProt E2JF22).
T1 construct: expressed in transfected cells
Put plainly: Long substance exposure and hypo-osmolality protocol Ca2+ assay. Type of experiment: cell-based. The following applies: 10 µM. How it is done: For intracellular Ca^2+ assays, cells were plated at 80–90% confluence in 96-well plates 24 h prior to recordings (6–8 × 10^4 cells per well). […] Cells were washed with SBS and incubated at room temperature for 20 min prior to recordings. Equal volumes of 2x concentrated compounds were injected to test for acute channel activation. Pre-incubation with compounds occurred during the 20 min prior to recordings. To expose cell membranes to hypo-osmolality, an equal volume of hypotonic SBS (containing only 35 mM NaCl) was injected onto the cells. Measurements were made on a fluorescence plate reader (Flexstation III, Molecular Devices) at room temperature (21 ± 2°C). Fura-2 was excited at 340 nm and 380 nm and emitted light collected at 510 nm, with measurements shown as the change in fluorescence (F) ratio (ΔF340/380).
SI Figure S5: Hypo-osm ol al it y test in the Ca2+ assay, referred to in the main paper
(a) Typical 96-well plate mean ± s.e.m. data for changes in intracellular Ca2+ evoked by hypotonic (35 mM NaCl) or normotonic (135 mM NaCl) medium for WT- or Empty vector-transfected cells in increasing concentrations of Yoda1 as indicated and colour -coded on t he right (representative of n = 3-6 independent experiments). […]

T1 sequence (E2JF22 whole entry): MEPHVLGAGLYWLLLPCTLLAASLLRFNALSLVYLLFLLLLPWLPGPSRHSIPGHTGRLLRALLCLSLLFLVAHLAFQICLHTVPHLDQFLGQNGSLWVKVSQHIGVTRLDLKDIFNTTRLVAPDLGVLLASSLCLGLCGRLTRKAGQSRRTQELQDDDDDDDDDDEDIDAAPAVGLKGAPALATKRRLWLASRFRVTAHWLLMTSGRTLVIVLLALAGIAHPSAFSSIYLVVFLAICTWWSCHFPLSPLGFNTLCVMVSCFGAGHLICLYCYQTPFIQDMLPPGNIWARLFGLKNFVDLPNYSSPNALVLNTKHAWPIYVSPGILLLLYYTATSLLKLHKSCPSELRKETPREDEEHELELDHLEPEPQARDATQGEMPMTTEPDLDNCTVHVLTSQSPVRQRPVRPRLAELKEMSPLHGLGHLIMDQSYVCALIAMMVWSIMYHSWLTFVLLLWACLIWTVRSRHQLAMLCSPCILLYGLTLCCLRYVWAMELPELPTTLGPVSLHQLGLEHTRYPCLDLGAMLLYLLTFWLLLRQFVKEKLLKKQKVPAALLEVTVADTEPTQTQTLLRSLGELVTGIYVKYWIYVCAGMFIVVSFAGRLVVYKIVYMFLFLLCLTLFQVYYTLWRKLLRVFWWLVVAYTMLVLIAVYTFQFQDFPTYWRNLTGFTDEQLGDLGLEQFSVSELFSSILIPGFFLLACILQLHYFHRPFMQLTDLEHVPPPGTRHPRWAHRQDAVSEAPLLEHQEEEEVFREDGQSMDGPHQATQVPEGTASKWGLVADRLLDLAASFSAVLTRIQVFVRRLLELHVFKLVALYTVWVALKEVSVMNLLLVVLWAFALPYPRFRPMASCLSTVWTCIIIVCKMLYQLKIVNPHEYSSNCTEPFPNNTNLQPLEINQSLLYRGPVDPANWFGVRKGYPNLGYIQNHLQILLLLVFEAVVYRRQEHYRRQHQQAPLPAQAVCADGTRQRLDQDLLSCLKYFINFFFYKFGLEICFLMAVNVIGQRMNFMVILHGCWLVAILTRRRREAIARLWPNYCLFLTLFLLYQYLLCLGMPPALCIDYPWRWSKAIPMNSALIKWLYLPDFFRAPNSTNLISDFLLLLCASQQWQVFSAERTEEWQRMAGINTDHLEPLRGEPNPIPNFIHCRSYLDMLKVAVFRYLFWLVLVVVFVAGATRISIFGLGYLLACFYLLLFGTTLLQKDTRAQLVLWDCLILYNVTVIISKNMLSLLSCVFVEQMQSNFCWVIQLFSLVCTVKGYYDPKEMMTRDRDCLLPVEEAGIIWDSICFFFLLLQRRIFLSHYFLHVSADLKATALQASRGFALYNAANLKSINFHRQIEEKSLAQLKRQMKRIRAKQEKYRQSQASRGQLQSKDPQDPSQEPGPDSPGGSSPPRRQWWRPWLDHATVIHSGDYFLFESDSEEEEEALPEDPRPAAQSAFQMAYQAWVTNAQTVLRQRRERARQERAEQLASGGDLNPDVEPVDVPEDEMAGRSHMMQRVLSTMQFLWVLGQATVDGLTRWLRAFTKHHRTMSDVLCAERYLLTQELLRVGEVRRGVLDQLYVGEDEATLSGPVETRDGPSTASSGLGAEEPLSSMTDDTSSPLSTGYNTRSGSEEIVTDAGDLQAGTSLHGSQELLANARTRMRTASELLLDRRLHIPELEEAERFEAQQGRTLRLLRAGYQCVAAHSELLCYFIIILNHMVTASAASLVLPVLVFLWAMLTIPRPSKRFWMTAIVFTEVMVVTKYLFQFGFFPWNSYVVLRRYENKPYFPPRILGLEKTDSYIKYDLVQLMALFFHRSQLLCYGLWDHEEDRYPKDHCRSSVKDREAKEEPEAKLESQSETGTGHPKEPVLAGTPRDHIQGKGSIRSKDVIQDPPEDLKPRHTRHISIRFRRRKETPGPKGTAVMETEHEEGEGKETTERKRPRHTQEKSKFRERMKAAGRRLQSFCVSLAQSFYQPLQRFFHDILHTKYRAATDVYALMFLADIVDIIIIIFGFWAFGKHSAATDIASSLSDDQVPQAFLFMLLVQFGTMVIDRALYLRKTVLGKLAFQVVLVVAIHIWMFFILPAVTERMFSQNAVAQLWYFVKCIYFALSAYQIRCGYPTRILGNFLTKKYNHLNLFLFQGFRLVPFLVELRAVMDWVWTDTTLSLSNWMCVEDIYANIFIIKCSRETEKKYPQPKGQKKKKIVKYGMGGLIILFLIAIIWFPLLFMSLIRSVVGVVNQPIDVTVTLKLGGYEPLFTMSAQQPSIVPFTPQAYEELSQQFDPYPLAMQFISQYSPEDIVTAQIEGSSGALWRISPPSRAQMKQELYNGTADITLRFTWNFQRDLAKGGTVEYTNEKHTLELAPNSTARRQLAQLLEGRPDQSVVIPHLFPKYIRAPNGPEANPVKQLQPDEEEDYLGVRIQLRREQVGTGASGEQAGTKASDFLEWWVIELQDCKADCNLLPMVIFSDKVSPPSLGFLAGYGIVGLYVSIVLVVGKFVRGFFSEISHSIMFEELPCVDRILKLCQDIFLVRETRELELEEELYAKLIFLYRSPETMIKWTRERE

In the case of `Nc1ccc(-c2nnc(SCc3c(Cl)cccc3Cl)s2)cc1` [KC146, 4-(5-((2,6-dichlorobenzyl)thio)-1,3,4-thiadiazol-2-yl)aniline], the assay interference result is recorded as “caused a fluorescence artefact”.

Source of the values: PMC12337661, “PIEZO1 mechanical insensitivity in generalized lymphatic dysplasia with the potential for pharmacological rescue” (iScience, 2025).
